Assay results as given in PubChem BioAssay (NCI).
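These data come from cells grown in 96-well plates and exposed to compound for 48 hours at five concentrations. Here, GI50 denotes the concentration required for 50% inhibition of growth. At the TGI there is no net growth.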

How the values were obtained:
Assay in all cases: NCI tumour cell line growth inhibition, 48 h
MALME-3M melanoma = tested on: MALME-3M melanoma
MOLT-4 leukemia = tested on: MOLT-4 leukemia
SF-268 CNS = tested on: SF-268 CNS
U251 CNS = tested on: U251 CNS
MDA-MB-435 = tested on: MDA-MB-435
RPMI-8226 leukemia = tested on: RPMI-8226 leukemia
SR leukemia = tested on: SR leukemia
TK-10 renal = tested on: TK-10 renal
UACC-257 melanoma = tested on: UACC-257 melanoma
HT29 colon = tested on: HT29 colon

Structure (SMILES)	GI50 (MALME-3M melanoma) [µM]	TGI (MALME-3M melanoma) [µM]	GI50 (MOLT-4 leukemia) [µM]	TGI (MOLT-4 leukemia) [µM]	GI50 (SF-268 CNS) [µM]	TGI (SF-268 CNS) [µM]	GI50 (U251 CNS) [µM]	TGI (U251 CNS) [µM]	GI50 (MDA-MB-435) [µM]	TGI (MDA-MB-435) [µM]	GI50 (RPMI-8226 leukemia) [µM]	TGI (RPMI-8226 leukemia) [µM]	GI50 (SR leukemia) [µM]	TGI (SR leukemia) [µM]	GI50 (TK-10 renal) [µM]	TGI (TK-10 renal) [µM]	GI50 (UACC-257 melanoma) [µM]	TGI (UACC-257 melanoma) [µM]	GI50 (HT29 colon) [µM]	TGI (HT29 colon) [µM]
O=C1NC(=NCc2ccccc2)S/C1=C\c1ccc2ncccc2c1	> 25	> 25	> 25	> 25	> 25	> 25	> 25	> 25	> 25	> 25	> 25	> 25	1.05	> 25	> 25	> 25	> 25	> 25	> 25	> 25
Cc1cc2c(cc1C)[n+](=O)c(C(=O)c1ccccc1)c(C(F)F)n2[O-]	23.2	62.9	8.02	43.1	13	> 100	12.7	> 100	26.3	> 100	5.81	43.9	4.39	98.4	38	> 100	–	–	17.2	> 100
CC(=O)OCc1ccc2c(c1)C(O)NC(=O)O2 (stereo unspecified)	–	> 100	–	> 100	–	> 100	–	> 100	–	> 100	–	73.6	–	> 100	–	> 100	–	> 100	–	> 100
CC(=O)OC1(C)N=NC2(CCCCC2)O1 (stereo unspecified)	–	> 100	–	> 100	–	> 100	–	> 100	–	> 100	–	> 100	–	> 100	–	> 100	–	> 100	–	> 100
O=C1c2c(F)c(F)c(F)c(F)c2C(=O)N1c1ccc(F)cc1F	13.4	33.9	0.864	3.73	10.1	27.8	2.55	7.95	13.9	38.3	3.81	65.4	0.144	1.2	13.7	> 51	21.8	57.2	7.36	> 100
COc1cc(-c2nn(-c3cccc(NC(=O)c4ccccc4)c3)cc2-c2ccncc2)ccc1Cl	0.344	–	0.701	> 100	0.596	> 54.8	0.592	24.4	0.184	0.508	0.457	> 100	0.25	> 100	4.12	> 83.8	0.63	> 100	0.365	> 45
O=C(Nc1cccc(C(F)(F)F)c1)Nc1cccc(C(F)(F)F)c1	1.36	3.92	1.34	6.44	2.1	10.9	0.509	3.14	1.44	5.51	0.382	5.6	1.77	7.56	1.3	7.2	1.31	4.95	0.84	6.06
O=[N+]([O-])c1cc([N+](=O)[O-])c(C(F)(F)F)cc1NN=C(c1ccc(O)cc1)c1ccc(O)cc1	4.72	35.1	1.8	5.77	2.63	7.66	2.92	11.7	1.92	4.92	3.71	12.6	1.55	6.42	6.06	33.4	4.29	17.5	3.33	12.1
c1ccc(Nc2ncc(-c3ccccc3)o2)cc1	> 25	> 25	> 25	> 25	> 25	> 25	> 25	> 25	> 25	> 25	> 25	> 25	> 20.6	> 25	> 25	> 25	> 25	> 25	> 25	> 25
COc1ccc2ncnc(Nc3ccc(OCc4ccccc4)cc3)c2c1	10.1	> 25	7.56	> 23.5	13.9	> 25	8.54	> 25	7.22	> 21.1	7.58	> 25	11.6	> 25	3.68	18.4	7.47	> 25	6.54	> 25
O=C1OCC2=C1C(c1cccc(Br)c1)c1cc3c(cc1N2CCO)OCCO3 (stereo unspecified)	0.0288	20.8	0.225	> 42.2	0.0766	8.38	0.0596	6.07	–	0.0241	0.0714	14	0.127	31	0.101	16.9	0.0261	15.3	0.0507	0.233
OC(c1cc(C(F)(F)F)nc2c(C(F)(F)F)cccc12)C1CCCCN1 (stereo unspecified)	2.6	7.36	2.77	6.53	3.57	13.1	1.79	4.25	1.8	3.66	3.22	11.5	3.59	8.27	1.8	3.43	2.2	6.53	1.99	3.92
Cc1ccc(-c2nc(N3CCNCC3)c3oc(-c4ccc(C)cc4)nc3n2)cc1	7.23	18.9	2.2	4.69	2.25	5.61	1.83	3.32	2.3	6.22	2.48	5.28	0.371	1.85	5.43	14	> 45.7	> 65.9	1.88	3.42
